From US5441962A, “Method for treating hyperlipemia” (priority 1992, dated 1995)
Structures can show the parent of a compound that is named as a salt.

What was measured:
[1] = in vivo; details: mouse, in vivo, po, average
[2] = system: mice; test: in vivo; details: oral
[3] = system: Wall of Aorta; test: Proportion of components constituting the wall of aorta (histochemical assay, fifth intercostal pars of thoracic aorta); assay type: in vivo, Male Japanese white rabbits
From the text: (§1) In this example, the effects of the present compound on the wall of a blood vessel, a serum lipid and a blood glucose level were studied on the experimental sclerosis rabbits from the determination of the arterial sclerosis action, the assay of the components constituting the wall of the blood vessel and the transitional analysis of the damage of the blood wall with time.
(§2) Male Japanese white rabbits (25 months age) were randomly divided into three groups. A normal diet was given to one group (called hereafter "healthy group"). The remaining two groups were fed with 100 g/day of a high α-starch, high salinity and low protein, sclerosis diet containing 0.3% cholesterol (manufactured by Funabashi Farm), simultaneously injected intramuscularly with norepinephrine (3 mg) and bred for 150 days. One group of them was called hereafter "sclerosis group". […] Every 50 days, Aortic Pulse Wave Velocity (PWV) was measured to determine a average hardness of aorta of the rabbits. After five months and just before slaughter of the rabbits, blood was drawn to determine cholesterol in blood (T-Cho), triglyceride (TG), β-lipoprotein (β-Lp), HDL choresterol and a blood glucose level. After slaughter, a fifth intercostal pars in the thoracic aorta was extracted and then subjected to formalin fixation and embedding in paraffin. Subsequently, each component of smooth muscle cell (SMC), elastin (EL), collagen (CL), glycosaminoglycan (GAGs), PAS positive substance (PAS), calcium (Ca) and cholesterol (Cho) was histochemically observed and assayed.

[4] = system: experimental sclerosis rabbits; test: Change of Aortic Pulse Wave Velocity (ΔPWV) in experimental sclerosis rabbits; assay type: in vivo, Male Japanese white rabbits
From the text: as §1, §2
PWV is increasing with the advance of growth, maturation and ageing. Thus an increase in PWV value is an indication of arterial sclerosis (see Arterial Sclerosis, vol. 8, No. 1 April 1980, pp 91-95).

[5] = Serum lipid and blood glucose level in experimental sclerosis rabbits; assay type: in vivo, Male Japanese white rabbits; details: rabbit, oral 3 mg once per day, after five months
From the text: as §1, §2

[6] = rabbit, oral 3 mg once per day, after 150 days

## CC(C)(C)NCC(O)COc1c[nH]c(=O)c2ccccc12 (centres unmarked) [4-(3-tert.-butylamino-2-hydroxypropoxy)-1-isoquinolinonehydrochloride]
[1]; female mice
  LD50: 1290 mg/kg
[1]; male mice
  LD50: 1390 mg/kg
[2]; female mice
  LD50, range in parentheses: 1063 to 1566 mg/kg
[2]; male mice
  LD50, range in parentheses: 1223 to 1587 mg/kg

## Cl.Cn1cc(OCC(O)CNC(C)(C)C)c2ccccc2c1=O (racemic) [(±)-4-(3-tert.-butylamino-2-hydroxypropoxy)-2-methyl-1 (2H)-isoquinolinone hydrochloride]
[3]; Table 2, drug administered group
  Improvement in arterial sclerosis: remarkable improvement in arterial sclerosis
[3]; [6]
  Proportion of PAS positive substance (PAS) in the wall of aorta: 27.83 % E
  Proportion of calcium (Ca) in the wall of aorta: 1.92 % E
  Proportion of cholesterol (Cho) in the wall of aorta: 0.68 % E
  Proportion of collagen (CL) in the wall of aorta: 30.33 % E
  Proportion of elastin (EL) in the wall of aorta: 40.56 % E
  Proportion of glycosaminoglycan (GAGs) in the wall of aorta: 16.03 % E
  Proportion of smooth muscle cell (SMC) in the wall of aorta: 46.72 % E
[4]; 150 days, vs sclerosis group
  PWV as compared with the sclerosis group: significantly improved
[4]; rabbit, sclerosis diet + norepinephrine i.m., oral capsule 3 mg once per day, 0-50 days
  Δ PWV, 0-50 days: -0.110 m/sec
[4]; rabbit, sclerosis diet + norepinephrine i.m., oral capsule 3 mg once per day, 51-100 days
  Δ PWV, 51-100 days: -0.290 m/sec
[4]; rabbit, sclerosis diet + norepinephrine i.m., oral capsule 3 mg once per day, 101-150 days
  Δ PWV, 101-150 days: -0.890 m/sec
[5]
  Blood glucose level: 162.50 mg/dL
  Cholesterol in blood (T-Cho): 25.25 mg/dL
  HDL cholesterol (HDL-C): 15.44 mg/dL
  Triglyceride (TG): 65.40 mg/dL
  β-lipoprotein (β-Lp): 2.75 mg/dL
[1]; female mice
  LD50: 1290 mg/kg
[1]; male mice
  LD50: 1390 mg/kg
